In brackets after ≈: the same amount, converted by molar mass. Values belong to the molecule of their own block, whether it stands above or below them.
Assays:
T47D = assay: Cytotoxicity against human T47D cells assessed as cell growth inhibition incubated for 48 hrs by sulforhodamine B reagent assay; assay type: functional, cell-based
Hs-578T = assay: Cytotoxicity against human Hs-578T cells assessed as cell growth inhibition incubated for 48 hrs by sulforhodamine B reagent assay; assay type: functional, cell-based
MCF7 [1] = assay: Cytotoxicity against human MCF7 cells assessed as cell growth inhibition incubated for 48 hrs by sulforhodamine B reagent assay; assay type: functional, cell-based; details: MCF7, 48 h
SNB-75 = assay: Cytotoxicity against human SNB-75 cells assessed as cell growth inhibition incubated for 48 hrs by sulforhodamine B reagent assay; assay type: functional, cell-based; details: SNB-75, 48 h
BT-549 = assay: Cytotoxicity against human BT-549 cells assessed as cell growth inhibition incubated for 48 hrs by sulforhodamine B reagent assay; assay type: functional, cell-based; details: BT-549, 48 h
HCT-116 [2] = assay: Cytotoxicity against human HCT-116 cells assessed as cell growth inhibition incubated for 48 hrs by sulforhodamine B reagent assay; assay type: functional, cell-based; details: HCT-116, 48 h
SK-MEL-28 [3] = assay: Cytotoxicity against human SK-MEL-28 cells assessed as cell growth inhibition incubated for 48 hrs by sulforhodamine B reagent assay; assay type: functional, cell-based; details: SK-MEL-28, 48 h
NCI-H322M = assay: Cytotoxicity against human NCI-H322M cells assessed as cell growth inhibition incubated for 48 hrs by sulforhodamine B reagent assay; assay type: functional, cell-based
EKVX = assay: Cytotoxicity against human EKVX cells assessed as cell growth inhibition incubated for 48 hrs by sulforhodamine B reagent assay; assay type: functional, cell-based
SK-MEL-5 = assay: Cytotoxicity against human SK-MEL-5 cells assessed as cell growth inhibition incubated for 48 hrs by sulforhodamine B reagent assay; assay type: functional, cell-based; details: SK-MEL-5, 48 h
SF-539 = assay: Cytotoxicity against human SF-539 cells assessed as cell growth inhibition incubated for 48 hrs by sulforhodamine B reagent assay; assay type: functional, cell-based; details: SF-539, 48 h
Malme-3M = assay: Cytotoxicity against human Malme-3M cells assessed as cell growth inhibition incubated for 48 hrs by sulforhodamine B reagent assay; assay type: functional, cell-based
U-251 = assay: Cytotoxicity against human U-251 cells assessed as cell growth inhibition incubated for 48 hrs by sulforhodamine B reagent assay; assay type: functional, cell-based; details: U-251, 48 h
K562 = assay: Cytotoxicity against human K562 cells assessed as cell growth inhibition incubated for 48 hrs by sulforhodamine B reagent assay; assay type: functional, cell-based; details: K562, 48 h
DU-145 = assay: Cytotoxicity against human DU-145 cells assessed as cell growth inhibition incubated for 48 hrs by sulforhodamine B reagent assay; assay type: functional, cell-based; details: DU-145, 48 h
MDA-MB-231 = assay: Cytotoxicity against human MDA-MB-231 cells assessed as cell growth inhibition incubated for 48 hrs by sulforhodamine B reagent assay; assay type: functional, cell-based; details: MDA-MB-231, 48 h
SW-620 = assay: Cytotoxicity against human SW620 cells assessed as cell growth inhibition incubated for 48 hrs by sulforhodamine B reagent assay; assay type: functional, cell-based; details: SW-620, 48 h
KM12 = assay: Cytotoxicity against human KM12 cells assessed as cell growth inhibition incubated for 48 hrs by sulforhodamine B reagent assay; assay type: functional, cell-based; details: KM12, 48 h
OVCAR-4 = assay: Cytotoxicity against human OVCAR-4 cells assessed as cell growth inhibition incubated for 48 hrs by sulforhodamine B reagent assay; assay type: functional, cell-based; details: OVCAR-4, 48 h
786-0 = assay: Cytotoxicity against human 786-0 cells assessed as cell growth inhibition incubated for 48 hrs by sulforhodamine B reagent assay; assay type: functional, cell-based; details: 786-0, 48 h
RXF 393 = assay: Cytotoxicity against human RXF 393 cells assessed as cell growth inhibition incubated for 48 hrs by sulforhodamine B reagent assay; assay type: functional, cell-based; details: RXF 393, 48 h
HL-60 [4] = assay: Cytotoxicity against human HL-60 cells assessed as inhibition of cell growth incubated for 96 hrs by MTT assay; assay type: functional, cell-based; details: HL-60, 96 h
U-937 = assay: Cytotoxicity against human U-937 cells assessed as inhibition of cell growth incubated for 96 hrs by MTT assay; assay type: functional, cell-based; details: U-937, 96 h
Calf thymus DNA [5] = assay: Binding affinity to calf thymus DNA assessed as DNA intercalation by measuring change in melting temperature by thermal denaturation assay based UV-Vis spectrophotometric analysis; assay type: nucleic-acid assay; details: Bos taurus
HT-29 = assay: Antiproliferative activity against human HT-29 cells assessed as inhibition of cell proliferation; assay type: functional, cell-based
MCF7 [6] = assay: Antiproliferative activity against human MCF7 cells assessed as inhibition of cell proliferation; assay type: functional, cell-based
A549 [7] = assay: Cytotoxicity against human A549 cells assessed as inhibition of cell growth incubated for 48 hrs by MTT spectrophotometric assay; assay type: functional, cell-based; details: A549, 48 h
HeLa [8] = assay: Cytotoxicity against human HeLa cells assessed as inhibition of cell growth incubated for 48 hrs by MTT spectrophotometric assay; assay type: functional, cell-based
SGC-7901 [9] = assay: Cytotoxicity against human SGC-7901 cells assessed as inhibition of cell growth incubated for 48 hrs by MTT spectrophotometric assay; assay type: functional, cell-based; details: SGC-7901, 48 h
Calf thymus DNA [10] = assay: Binding affinity to calf thymus DNA assessed as binding constant by UV-Vis spectroscopic analysis; assay type: nucleic-acid assay; details: Bos taurus
SK-MEL-28 [11] = assay: Growth inhibition against human SK-MEL-28 cells at 10 uM incubated for 48 hrs by sulforhodamine B reagent assay; assay type: functional; details: read-out: GI
Calf thymus DNA [12] = assay: Binding affinity to calf thymus DNA assessed as DNA intercalation by measuring change in melting temperature by thermal denaturation assay; assay type: nucleic-acid assay; details: Bos taurus
HL-60 [13] = assay: Antiproliferative activity against human HL-60 cells assessed as inhibition of cell growth; assay type: functional, cell-based
A549 [14] = assay: Antiproliferative activity against human A549 cells assessed as inhibition of cell growth; assay type: functional, cell-based
HeLa [15] = assay: Antiproliferative activity against human HeLa cells assessed as inhibition of cell growth; assay type: functional, cell-based
PANC-1 = assay: Cytotoxicity against human PANC-1 cells assessed as inhibition of cell growth incubated for 24 hrs by XTT assay; assay type: functional, cell-based; details: PANC-1, 24 h
HCT-116 [16] = assay: Cytotoxicity against human HCT-116 cells assessed as inhibition of cell growth incubated for 24 hrs by XTT assay; assay type: functional, cell-based; details: HCT-116, 24 h
MCF7 [17] = assay: Cytotoxicity against human MCF7 cells assessed as inhibition of cell growth incubated for 24 hrs by CCK-8 assay; assay type: functional, cell-based; details: MCF7, 24 h
[18] = Antioxidant activity assessed as DPPH radical scavenging activity incubated for 30 mins by UV-Vis spectrophotometer assay; assay type: functional
Calf thymus DNA [19] = assay: Binding affinity to calf thymus DNA assessed as binding constant incubated for 30 mins by fluorescence based EtBr-displacement assay; assay type: nucleic-acid assay; details: Bos taurus
[20] = Antioxidant activity assessed as hydrogen peroxide free radical scavenging activity incubated for 10 mins; assay type: functional
A549 [21] = assay: Cytotoxicity against human A549 cells assessed as inhibition of cell growth by MTT assay; assay type: functional, cell-based
MCF7 [22] = assay: Cytotoxicity against human MCF7 cells assessed as inhibition of cell growth by MTT assay; assay type: functional, cell-based
HeLa [23] = assay: Cytotoxicity against human HeLa cells assessed as inhibition of cell growth by MTT assay; assay type: functional, cell-based
SGC-7901 [24] = assay: Cytotoxicity against human SGC-7901 cells assessed as inhibition of cell growth by MTT assay; assay type: functional, cell-based
Calf thymus DNA [25] = assay: Binding affinity to calf thymus DNA assessed as DNA intercalation by measuring binding constant by fluorescence spectroscopic assay; assay type: nucleic-acid assay; details: Bos taurus

SMILES: CN1CCN(c2ccc3nc(-c4ccc(OCCCN5C(=O)c6cccc7cccc(c67)C5=O)cc4)[nH]c3c2)CC1
IC50 (T47D): 110 nM | IC50 (Hs-578T): 110 nM | IC50 (MCF7 [1]): 110 nM | IC50 (SNB-75): 110 nM | IC50 (BT-549): 110 nM | IC50 (HCT-116 [2]): 110 nM | IC50 (SK-MEL-28 [3]): 110 nM | IC50 (NCI-H322M): 110 nM | IC50 (EKVX): 110 nM | IC50 (SK-MEL-5): 110 nM | IC50 (SF-539): 110 nM | IC50 (Malme-3M): 110 nM | IC50 (U-251): 110 nM | IC50 (K562): 110 nM | IC50 (DU-145): 110 nM | IC50 (MDA-MB-231): 110 nM | IC50 (SW-620): 110 nM | IC50 (KM12): 110 nM | IC50 (OVCAR-4): 110 nM | IC50 (786-0): 110 nM | IC50 (RXF 393): 110 nM

SMILES: O=C1c2cccc3c([N+](=O)[O-])ccc(c23)C(=O)N1CCCO
IC50 (HL-60 [4]): 700 nM | IC50 (U-937): 700 nM

ΔTm (Calf thymus DNA [5]): 3 °C | IC50 (HT-29): 4600 nM | IC50 (MCF7 [6]): 4600 nM
SMILES: C[n+]1ccn(CCCN2C(=O)c3cccc4cccc(c34)C2=O)c1

Kb (Calf thymus DNA [10]): 0.47 10^5/M
SMILES: CN(C)CCN1C(=O)c2cccc3c(N4CCN(CCO)CC4)ccc(c23)C1=O
IC50 (A549 [7]): < 7000 nM | IC50 (HeLa [8]): < 7000 nM | IC50 (SGC-7901 [9]): < 7000 nM

SMILES: O=C1c2cccc3cccc(c23)C(=O)N1CCCCCN1CCN(CCCCCOc2ccc(-c3nc4ccc(N5CCOCC5)cc4[nH]3)cc2)CC1
inhibition of growth at 10 µM (SK-MEL-28 [11]): 50%

ΔTm (Calf thymus DNA [12]): 11.8 °C | IC50 (HL-60 [13]): 13100 nM | IC50 (A549 [14]): 3160 nM | IC50 (HeLa [15]): 13100 nM
SMILES: CN(C)CCN1C(=O)c2cccc3c(NCCNCCN)ccc(c23)C1=O

SMILES: CN(C)CCN1C(=O)c2cccc3c(N(CCCl)CCCl)ccc(c23)C1=O
IC50 (PANC-1): 1900 nM | IC50 (HCT-116 [16]): 1900 nM

ΔTm (Calf thymus DNA [5]): 3 °C | IC50 (HT-29): 4600 nM | IC50 (MCF7 [6]): 4600 nM
SMILES: CC[n+]1ccn(CCCN2C(=O)c3cccc4cccc(c34)C2=O)c1

SMILES: CN(C)CCCN1C(=O)c2cccc3c(NCCNC(=N)N)ccc(c23)C1=O
IC50 (MCF7 [17]): 10400 nM

SMILES: CN(C)CCN1C(=O)c2cccc3c(N(C)CCCl)ccc(c23)C1=O
IC50 (PANC-1): 1900 nM | IC50 (HCT-116 [16]): 1900 nM

SMILES: CN(C)CCCNc1ccc2c3c(cccc13)C(=O)N(CCCN(C)C)C2=O
IC50 (MCF7 [17]): 2040 nM

SMILES: CN1CCN(c2ccc3nc(-c4ccc(OCCCCN5CCN(CCCCN6C(=O)c7cccc8cccc(c78)C6=O)CC5)cc4)[nH]c3c2)CC1
inhibition of growth at 10 µM (SK-MEL-28 [11]): 50%

IC50 [18]: 1430 µg/mL (≈ 4.13 mM) | Kb (Calf thymus DNA [19]): 2.25 10^4/M | IC50 [20]: 1170 µg/mL (≈ 3.38 mM)
SMILES: COc1cccc(/C=N/N2C(=O)c3cccc4cccc(c34)C2=O)c1O

SMILES: CN(C)CCCN1C(=O)c2cccc3c(NCCN)ccc(c23)C1=O
IC50 (MCF7 [17]): 56600 nM

ΔTm (Calf thymus DNA [5]): 3 °C | IC50 (HT-29): 4600 nM | IC50 (MCF7 [6]): 4600 nM
SMILES: CCSc1ccc2c3c(cccc13)C(=O)N(CCCn1cc[n+](C)c1)C2=O

Kb (Calf thymus DNA [25]): 1.8 10^4/M
SMILES: CN(C)CCN1C(=O)c2cccc3c(N4CC[C@@H](O)C4)ccc(c23)C1=O
IC50 (A549 [21]): 870 nM | IC50 (MCF7 [22]): 870 nM | IC50 (HeLa [23]): 870 nM | IC50 (SGC-7901 [24]): 870 nM
